Data: patent US10227359B2, “Tricyclic heterocycles as bet protein inhibitors” (Incyte Corporation, priority 2014, dated 2019)
pIC50: −log10 of the molar value.

Columns and labels:
[1] = test system: KMS.12.BM cell line (human myeloma); test: KMS.12.BM Cell Viability Assay; format: cell-based; details: 72 h, KMS.12.BM cells, 3 days, Cell Titer-GLO, read-out: KMS cellular IC50
Procedure: Example B1: KMS.12.BM Cell Viability Assay
KMS.12.BM cell line (human myeloma) was purchased from JCRB (Osaka, Japan) and maintained in RPMI with 10% FBS culture medium. To measure the cytotoxic activity of the compounds through ATP quantitation, the KMS.12.BM cells are plated in the RPMI culture medium at 5000 cells/well/per 100 μL into a 96-well polystyrene clear black tissue culture plate (Greiner-bio-one through VWR, NJ), in the presence or absence of a concentration range of test compounds. After 3 days, […] Cell Titer-GLO Luminescent (Promega, Madison, Wis.) cell culture agent is added to each well for 10 min. at room temperature to stabilize the luminescent signal. This determines the number of viable cells in culture based on quantitation of the ATP present, which signals the presence of metabolically active cells. Luminescence is measured with the Top Count 384 (Packard Bioscience through Perkin Elmer, Boston, Mass.). Compound inhibition is determined relative to cells cultured with no drug and the IC50 reported as the compound concentration required for 50% cell death.

C-myc in KMS.12.BM cells = test: KMS.12.BM C-myc ELISA Assay; format: cell-based; details: Homo sapiens, 2 h
Procedure: KMS.12.BM C-myc ELISA Assay
KMS.12.BM cell line (human myeloma) was purchased from JCRB (Osaka, Japan) and maintained in RPMI with 10% FBS culture medium. To measure the C-myc inhibitory activity of the compounds, the KMS.12.BM cells are plated in the RPMI culture medium at 75000 cells/well/per 200 μL into a 96-well flat bottom polystyrene tissue culture plate (Corning through VWR, NJ), in the presence or absence of a concentration range of test compounds. After 2 h, cells are pelleted and lysed with Cell Extraction Buffer (BioSource, Carlsbad, Calif.) in the presence of protease inhibitors (Life Technologies, Grand Island, N.Y. and Sigma, St Louis, Mo.). Clarified lyses are tested in a C-myc commercial ELISA (Life Technologies, Grand Island, N.Y.). Compound inhibition is determined relative to cells cultured with no drug and the IC50 reported as the compound concentration required for 50% C-myc inhibition.

Compound	pIC50 [1]	pIC50 (C-myc in KMS.12.BM cells)
Cc1noc(C)c1-c1ccc2nc(N3CCC(N(C)S(=O)(=O)C4CC4)CC3)n3c2c1OC[C@@H]3c1ccccn1 [Example 24, N-{1-[(4S)-7-(3,5-dimethylisoxazol-4-yl)-4-pyridin-2-yl-4,5-dihydroimidazo[1,5,4-de][1,4]benzoxazin-2-yl]piperidin-4-yl}-N-methylcyclopropanesulfonamide]	≥ 7.00	≥ 7.00
CCCC(=O)N1CCN(c2nc3ccc(-c4c(C)noc4C)c4c3n2[C@@H](c2ccccn2)CO4)CC1 [Example 25, (4S)-2-(4-butyrylpiperazin-1-yl)-7-(3,5-dimethylisoxazol-4-yl)-4-pyridin-2-yl-4,5-dihydroimidazo[1,5,4-de][1,4]benzoxazine]	≥ 7.00	≥ 7.00
Cc1noc(C)c1-c1ccc2nc(N3CCN(C(=O)C(C)(C)C)CC3)n3c2c1OC[C@@H]3c1ccccn1 [Example 26, (4S)-7-(3,5-dimethylisoxazol-4-yl)-2-[4-(2,2-dimethylpropanoyl)piperazin-1-yl]-4-pyridin-2-yl-4,5-dihydroimidazo[1,5,4-de][1,4]benzoxazine]	≥ 7.00	≥ 7.00
Cc1noc(C)c1-c1ccc2nc(N3CCN(C(=O)C4CC4)CC3)n3c2c1OC[C@@H]3c1ccccn1 [Example 27, (4S)-2-[4-(cyclopropylcarbonyl)piperazin-1-yl]-7-(3,5-dimcthylisoxazol-4-yl)-4-pyridin-2-yl-4,5-dihydroimidazo[1,5,4-de][1,4]benzoxazine]	≥ 7.00	≥ 7.00
Cc1noc(C)c1-c1ccc2nc(N3CCN(C(=O)C4CCC4)CC3)n3c2c1OC[C@@H]3c1ccccn1 [Example 28, (4S)-2-[4-(cyclobutylcarbonyl)piperazin-1-yl]-7-(3,5-dimethylisoxazol-4-yl)-4-pyridin-2-yl-4,5-dihydroimidazo[1,5,4-de][1,4]benzoxazine]	≥ 7.00	6.00 to 7.00
COCC(=O)N1CCN(c2nc3ccc(-c4c(C)noc4C)c4c3n2[C@@H](c2ccccn2)CO4)CC1 [Example 29, (4S)-7-(3,5-dimethylisoxazol-4-yl)-2-[4-(methoxyacetyl)piperazin-1-yl]-4-pyridin-2-yl-4,5-dihydroimidazo[1,5,4-de][1,4]benzoxazine]	≥ 7.00	≥ 7.00
